Data reported in patent US9492471B2, “Methods of treating a disease or disorder associated with Bruton'S Tyrosine Kinase” (Celgene Avilomics Research, Inc., priority 2013, dated 2016).
Where two headings read alike, the source gives them in different places.

Key:
Experiment in all cases: HotSpot kinase profiling
Format in all cases: biochemical
[1] = molecular target: T1, PKN3/PRK3 (Homo sapiens, UniProt Q6P5Z2)
T1 construct: purchased Reaction Biology Corp
Summary of the method: (§1)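 Percent inhibition, averaged when run more than once and referenced to a DMSO negative control, came from a radioactive filter-binding readout on P81 paper. Reactions of kinase with freshly made substrate and cofactors ran for 2 h at room temperature.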

[2] = molecular target: T2, ALK3/BMPR1A (Homo sapiens, UniProt P36894)
T2 construct: purchased Reaction Biology Corp
T2 sequence (P36894 24-532): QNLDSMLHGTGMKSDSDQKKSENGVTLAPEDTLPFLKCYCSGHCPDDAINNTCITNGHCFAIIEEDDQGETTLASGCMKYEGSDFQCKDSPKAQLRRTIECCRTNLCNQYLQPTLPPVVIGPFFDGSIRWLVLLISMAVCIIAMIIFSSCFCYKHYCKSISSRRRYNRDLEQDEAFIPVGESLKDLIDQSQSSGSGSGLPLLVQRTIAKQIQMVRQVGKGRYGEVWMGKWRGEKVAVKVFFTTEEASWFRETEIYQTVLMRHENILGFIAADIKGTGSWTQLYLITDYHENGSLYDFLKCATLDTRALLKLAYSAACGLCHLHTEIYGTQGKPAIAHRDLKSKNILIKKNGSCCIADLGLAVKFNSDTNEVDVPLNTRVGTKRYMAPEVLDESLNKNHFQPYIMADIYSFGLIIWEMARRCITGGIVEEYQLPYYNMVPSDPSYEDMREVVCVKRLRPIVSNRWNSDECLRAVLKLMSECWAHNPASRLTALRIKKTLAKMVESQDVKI
Summary of the method: as §1

[3] = molecular target: T3, MEKK3 (Homo sapiens, UniProt Q99759)
T3 construct: purchased Reaction Biology Corp
T3 sequence (Q99759 1-626): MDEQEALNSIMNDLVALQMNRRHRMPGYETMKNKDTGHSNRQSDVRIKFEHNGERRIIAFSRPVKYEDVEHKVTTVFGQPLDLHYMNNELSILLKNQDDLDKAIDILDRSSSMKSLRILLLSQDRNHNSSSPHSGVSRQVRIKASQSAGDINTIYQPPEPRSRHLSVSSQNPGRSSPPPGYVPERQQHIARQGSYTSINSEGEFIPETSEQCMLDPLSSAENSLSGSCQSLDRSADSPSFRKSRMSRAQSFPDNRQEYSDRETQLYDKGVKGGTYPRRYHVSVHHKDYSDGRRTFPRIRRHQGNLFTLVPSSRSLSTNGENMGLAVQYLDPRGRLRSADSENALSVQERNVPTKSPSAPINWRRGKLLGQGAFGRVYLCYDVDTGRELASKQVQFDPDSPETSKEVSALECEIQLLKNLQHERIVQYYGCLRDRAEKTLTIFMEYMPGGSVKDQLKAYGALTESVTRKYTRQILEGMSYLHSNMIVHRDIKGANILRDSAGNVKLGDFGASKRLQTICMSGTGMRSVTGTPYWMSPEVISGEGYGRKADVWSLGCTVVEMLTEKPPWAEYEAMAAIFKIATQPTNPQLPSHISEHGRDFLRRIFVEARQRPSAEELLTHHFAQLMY
Summary of the method: as §1

[4] = molecular target: T4, HIPK4 (Homo sapiens, UniProt Q8NE63)
T4 construct: purchased Reaction Biology Corp
T4 sequence (Q8NE63 1-616): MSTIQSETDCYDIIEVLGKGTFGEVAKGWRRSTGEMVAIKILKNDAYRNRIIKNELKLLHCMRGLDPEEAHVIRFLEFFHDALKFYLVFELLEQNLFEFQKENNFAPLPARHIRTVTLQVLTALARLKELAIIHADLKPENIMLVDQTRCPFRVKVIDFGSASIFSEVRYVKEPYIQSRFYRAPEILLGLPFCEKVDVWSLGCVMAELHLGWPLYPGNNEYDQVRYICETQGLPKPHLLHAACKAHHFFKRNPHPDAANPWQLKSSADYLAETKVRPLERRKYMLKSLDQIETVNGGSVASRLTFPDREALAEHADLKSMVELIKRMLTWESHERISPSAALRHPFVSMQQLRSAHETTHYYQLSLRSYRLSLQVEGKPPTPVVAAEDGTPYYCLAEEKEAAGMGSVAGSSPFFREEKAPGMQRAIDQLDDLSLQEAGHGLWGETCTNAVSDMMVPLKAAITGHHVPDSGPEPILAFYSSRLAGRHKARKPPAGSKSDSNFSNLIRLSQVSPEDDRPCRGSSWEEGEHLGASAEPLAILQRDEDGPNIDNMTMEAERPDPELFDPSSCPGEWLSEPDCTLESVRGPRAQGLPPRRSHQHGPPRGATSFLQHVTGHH
Summary of the method: as §1

[5] = molecular target: T5, CDK5/p35 (Homo sapiens, UniProt Q00535)
T5 construct: purchased Reaction Biology Corp
T5 sequence (Q00535 whole entry): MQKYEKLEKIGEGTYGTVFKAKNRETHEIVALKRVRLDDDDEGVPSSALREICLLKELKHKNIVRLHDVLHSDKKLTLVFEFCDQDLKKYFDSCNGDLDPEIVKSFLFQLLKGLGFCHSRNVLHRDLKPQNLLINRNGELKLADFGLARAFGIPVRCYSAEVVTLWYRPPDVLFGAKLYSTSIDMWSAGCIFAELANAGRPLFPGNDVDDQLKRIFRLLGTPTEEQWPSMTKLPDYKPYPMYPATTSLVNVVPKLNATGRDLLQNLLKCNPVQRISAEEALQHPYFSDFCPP
T5 sequence (Q15078 2-307 partner limits assumed): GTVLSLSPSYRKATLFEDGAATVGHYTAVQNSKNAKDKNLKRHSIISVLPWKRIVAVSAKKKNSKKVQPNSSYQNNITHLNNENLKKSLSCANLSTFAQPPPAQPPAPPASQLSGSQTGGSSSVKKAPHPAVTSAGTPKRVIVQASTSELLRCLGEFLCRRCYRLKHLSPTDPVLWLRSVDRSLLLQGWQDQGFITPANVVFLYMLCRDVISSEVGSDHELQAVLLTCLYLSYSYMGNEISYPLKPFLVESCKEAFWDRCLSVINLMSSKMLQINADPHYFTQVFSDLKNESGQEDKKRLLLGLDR
Summary of the method: as §1

[6] = molecular target: T6, ALK4/ACVR1B (Homo sapiens, UniProt P36896)
T6 construct: purchased Reaction Biology Corp
T6 sequence (P36896 24-505): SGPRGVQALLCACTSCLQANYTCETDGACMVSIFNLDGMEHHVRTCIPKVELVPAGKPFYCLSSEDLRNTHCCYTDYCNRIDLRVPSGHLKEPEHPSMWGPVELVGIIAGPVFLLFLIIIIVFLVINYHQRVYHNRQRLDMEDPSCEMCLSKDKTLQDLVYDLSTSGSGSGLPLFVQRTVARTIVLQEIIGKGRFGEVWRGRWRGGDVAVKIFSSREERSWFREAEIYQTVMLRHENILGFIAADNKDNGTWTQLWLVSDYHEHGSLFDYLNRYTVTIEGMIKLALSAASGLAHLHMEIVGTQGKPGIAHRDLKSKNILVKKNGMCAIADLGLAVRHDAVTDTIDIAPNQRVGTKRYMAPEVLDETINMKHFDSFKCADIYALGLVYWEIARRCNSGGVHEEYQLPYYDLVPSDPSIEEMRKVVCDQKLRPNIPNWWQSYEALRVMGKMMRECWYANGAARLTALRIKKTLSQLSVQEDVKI
Summary of the method: as §1

[7] = molecular target: T7, LOK/STK10 (Homo sapiens, UniProt O94804)
T7 construct: purchased Reaction Biology Corp
T7 sequence (O94804 whole entry): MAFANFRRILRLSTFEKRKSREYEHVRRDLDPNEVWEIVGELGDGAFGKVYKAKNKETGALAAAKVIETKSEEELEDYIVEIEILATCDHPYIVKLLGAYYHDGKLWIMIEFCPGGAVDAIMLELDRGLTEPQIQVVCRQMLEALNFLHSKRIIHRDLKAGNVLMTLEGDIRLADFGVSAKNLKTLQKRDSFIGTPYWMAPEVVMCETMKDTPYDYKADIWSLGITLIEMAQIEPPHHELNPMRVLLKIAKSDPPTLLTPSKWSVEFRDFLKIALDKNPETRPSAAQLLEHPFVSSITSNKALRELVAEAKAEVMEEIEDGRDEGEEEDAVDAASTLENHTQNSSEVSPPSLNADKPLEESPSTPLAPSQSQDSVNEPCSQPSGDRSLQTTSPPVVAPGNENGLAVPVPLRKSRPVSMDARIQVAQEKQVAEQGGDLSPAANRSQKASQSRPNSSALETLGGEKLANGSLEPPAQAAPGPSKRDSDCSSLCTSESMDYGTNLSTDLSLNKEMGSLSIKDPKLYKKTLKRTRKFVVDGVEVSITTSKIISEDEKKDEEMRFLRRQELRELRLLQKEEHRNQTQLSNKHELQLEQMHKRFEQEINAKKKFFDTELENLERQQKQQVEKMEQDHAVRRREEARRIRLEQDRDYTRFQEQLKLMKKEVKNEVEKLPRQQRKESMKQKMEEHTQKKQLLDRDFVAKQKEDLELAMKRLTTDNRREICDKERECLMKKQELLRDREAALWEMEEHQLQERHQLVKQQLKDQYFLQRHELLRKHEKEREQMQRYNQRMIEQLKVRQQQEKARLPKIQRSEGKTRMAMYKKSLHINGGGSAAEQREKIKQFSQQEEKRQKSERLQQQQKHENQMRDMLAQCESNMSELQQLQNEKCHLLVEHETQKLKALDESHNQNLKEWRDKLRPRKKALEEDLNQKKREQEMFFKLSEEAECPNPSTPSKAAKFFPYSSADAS
Summary of the method: as §1

[8] = molecular target: T8, ERK2/MAPK1 (Homo sapiens, UniProt P28482)
T8 construct: purchased Reaction Biology Corp
T8 sequence (P28482 whole entry): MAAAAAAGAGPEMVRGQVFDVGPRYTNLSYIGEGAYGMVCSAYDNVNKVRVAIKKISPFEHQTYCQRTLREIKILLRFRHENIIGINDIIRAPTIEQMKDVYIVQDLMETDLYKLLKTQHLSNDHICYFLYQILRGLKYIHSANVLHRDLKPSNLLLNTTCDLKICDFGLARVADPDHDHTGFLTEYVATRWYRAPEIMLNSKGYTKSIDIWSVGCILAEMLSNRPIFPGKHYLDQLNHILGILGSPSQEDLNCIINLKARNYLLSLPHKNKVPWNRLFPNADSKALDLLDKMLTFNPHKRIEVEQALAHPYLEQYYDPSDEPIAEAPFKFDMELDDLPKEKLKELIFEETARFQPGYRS
Summary of the method: as §1

[9] = molecular target: T9, PHKg1 (Homo sapiens, UniProt Q16816)
T9 construct: purchased Reaction Biology Corp
T9 sequence (Q16816 whole entry): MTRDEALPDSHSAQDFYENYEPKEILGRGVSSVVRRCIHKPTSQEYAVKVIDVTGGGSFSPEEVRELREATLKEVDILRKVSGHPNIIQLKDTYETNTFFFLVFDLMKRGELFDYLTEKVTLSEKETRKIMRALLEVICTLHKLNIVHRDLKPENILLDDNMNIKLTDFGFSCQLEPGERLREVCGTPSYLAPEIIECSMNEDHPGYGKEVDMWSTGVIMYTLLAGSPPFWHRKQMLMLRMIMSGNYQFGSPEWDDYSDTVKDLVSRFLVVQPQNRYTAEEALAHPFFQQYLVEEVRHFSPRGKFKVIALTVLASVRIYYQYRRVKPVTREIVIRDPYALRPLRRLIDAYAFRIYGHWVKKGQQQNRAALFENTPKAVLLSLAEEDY
Summary of the method: as §1

[10] = read-out: % Enzyme Activity (relative to DMSO controls) Run 1
[11] = read-out: % Enzyme Activity (relative to DMSO controls) Run 2

T1 sequence (Q6P5Z2 whole entry): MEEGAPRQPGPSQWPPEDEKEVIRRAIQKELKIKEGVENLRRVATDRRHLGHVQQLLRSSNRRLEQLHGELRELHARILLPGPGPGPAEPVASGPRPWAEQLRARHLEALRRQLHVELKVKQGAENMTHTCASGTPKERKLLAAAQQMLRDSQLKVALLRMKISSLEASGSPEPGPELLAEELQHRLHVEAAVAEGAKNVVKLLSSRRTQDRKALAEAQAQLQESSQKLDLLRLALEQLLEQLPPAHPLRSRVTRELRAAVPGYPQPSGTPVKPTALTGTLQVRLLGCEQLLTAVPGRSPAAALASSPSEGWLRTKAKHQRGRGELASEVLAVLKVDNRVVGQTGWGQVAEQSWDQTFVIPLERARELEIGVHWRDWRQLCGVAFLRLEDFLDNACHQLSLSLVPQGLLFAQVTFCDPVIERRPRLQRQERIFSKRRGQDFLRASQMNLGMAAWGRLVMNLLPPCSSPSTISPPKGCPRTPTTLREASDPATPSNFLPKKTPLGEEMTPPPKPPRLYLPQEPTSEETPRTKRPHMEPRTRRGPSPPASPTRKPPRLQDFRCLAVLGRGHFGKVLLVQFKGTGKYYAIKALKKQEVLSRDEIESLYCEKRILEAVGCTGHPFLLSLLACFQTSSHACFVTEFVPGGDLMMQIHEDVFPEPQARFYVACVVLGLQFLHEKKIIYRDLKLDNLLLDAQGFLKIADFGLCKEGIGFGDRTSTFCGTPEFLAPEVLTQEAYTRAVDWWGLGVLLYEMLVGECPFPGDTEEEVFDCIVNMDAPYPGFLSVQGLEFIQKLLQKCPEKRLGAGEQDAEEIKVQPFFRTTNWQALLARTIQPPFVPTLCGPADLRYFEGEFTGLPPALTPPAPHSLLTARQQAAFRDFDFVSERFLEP

SMILES: C=CC(=O)Nc1cccc(Nc2nc(Nc3ccc(OCCOC)c(F)c3)ncc2F)c1 [Compound 2]
- inhibition at 3 µM [1]: -7.32%
- remaining activity at 3 µM [1, 10]: 106%
- remaining activity at 3 µM [1, 11]: 108%
- inhibition at 3 µM [2]: -4.41%
- remaining activity at 3 µM [2, 10]: 104%
- remaining activity at 3 µM [2, 11]: 105%
- inhibition at 3 µM [3]: -4.03%
- remaining activity at 3 µM [3, 10]: 102%
- remaining activity at 3 µM [3, 11]: 106%
- inhibition at 3 µM [4]: 6.31%
- remaining activity at 3 µM [4, 10]: 93.6%
- remaining activity at 3 µM [4, 11]: 93.8%
- inhibition at 3 µM [5]: 4.49%
- remaining activity at 3 µM [5, 10]: 95%
- remaining activity at 3 µM [5, 11]: 96.1%
- inhibition at 3 µM [6]: -42.2%
- remaining activity at 3 µM [6, 10]: 141%
- remaining activity at 3 µM [6, 11]: 144%
- inhibition at 3 µM [7]: 56.9%
- remaining activity at 3 µM [7, 10]: 43.1%
- remaining activity at 3 µM [7, 11]: 43%
- inhibition at 3 µM [8]: -4.25%
- remaining activity at 3 µM [8, 10]: 106%
- remaining activity at 3 µM [8, 11]: 103%
- inhibition at 3 µM [9]: 14.5%
- remaining activity at 3 µM [9, 10]: 85.8%
- remaining activity at 3 µM [9, 11]: 85.2%
